Converted amounts (≈) assume the structure as drawn. Read-outs that look alike come from different tables or passages of the source. Marks after values point to notes of the source that are not given here.
How the values were obtained:
[1] = test system: human colon carcinoma HCT-116 cell line; test: MTT antiproliferative assay, HCT116; type: cell-based; conditions: 72 h
Procedure: (§1) The antiproliferative activity of the ten synthesized caged xanthone derivatives, as well as the lead compound DDO-6101 and GA were assessed with the 3-(4,5-dimethylthiazol-2-yl)-2,5-diphenyltetrazolium bromide (MTT) assay, as previously reported, against six human cancer cell lines, including the human lung carcinoma A549 cell line, taxol-resistant A549 cell line (A549/taxol), cisplatin-resistant A549 cell line (A549/cisplatin), the human hepatocellular carcinoma HepG2 cell line, the human colon carcinoma HCT-116 cell line, and the human glioblastoma U251 cell line. DDO-6101 and GA were used as positive controls for the in vitro assay.
(§2) Cancer cell lines were obtained from Cell Bank of Shanghai, Chinese Academy of Sciences. Cells were cultured in 90% RPMI 1640 medium (GIBCO, Invitrogen Corporation, New York, NY, USA) supplemented with 10% fetal bovine serum (Sijiqing Biotechnology Co., Hangzhou, China), 100 U/mL benzyl penicillin, and 100 μg/mL streptomycin in a humidified environment with 5% CO2 at 37 °C. All the tested compounds were dissolved in DMSO at a concentration of 0.01 mol/L and stored at −4 °C.
(§3) The inhibition of tumour cell growth was measured by a modified tetrazolium (MTT) salt assay. Cells were cultured in a 96-well plate and treated with culture medium alone or different concentrations of the compounds. The cells were incubated for 72 h, and then the MTT assay reagent was added. After a 4 h incubation, the formazan product was quantitated at 570 nm. The IC50 values (the concentrations that gave rise to 50% inhibition of cell viability) were calculated using GraphPad Prism 6 using a variable slope (four parameters).

[2] = logD by potentiometric titration (Gemini Profiler); type: physicochemical; conditions: pH 7.4; measured on Gemini Profiler instrument (pION); read-out: Log D 7.4
[3] = test system: human hepatocellular carcinoma HepG2 cell line; test: MTT antiproliferative assay, HepG2; type: cell-based; conditions: 72 h
Procedure: as §1, §2, §3

[4] = Aqueous solubility by HPLC; conditions: deionized water, thermodynamic from solid
Source text: (§4) In parallel with the in vitro antitumor activity testing, the physicochemical properties of the target caged xanthone derivatives were theoretically predicted and experimentally determined in an effort to identify potential druglike compounds prior to the time-consuming and costly development and optimization of derivatives that may ultimately fail in efficacy experiments in vivo. The partition coefficient (logD) was experimentally determined on a Gemini Profiler instrument (pION, Inc., Woburn, MA, USA) by a potentiometric titration method. The polar surface area (PSA), as well as intestinal absorption level, were theoretically predicted by Accelrys Discovery Studio 4.0 (BIOVIA, San Diego, CA, USA) using the ADMET protocol. […] The permeability coefficient (Pe) was determined using a standard parallel artificial membrane permeability assay (PAMPA) on a PAMPA Explorer instrument (pION).
(§5) A HPLC system with an ultraviolet (UV) detector was used to detect the solubility of the compounds. The optimal wavelength was 290 nm. Ethanol/water (85:15) was an efficient eluent at a flow rate of 0.5 mL/min. The compounds were stirred in deionized water overnight to maximize the retention of the compounds in solution. Then, the solutions were filtered and the supernatant was used as a fluid sample for HPLC detection. The permeability (Pe) of the compounds was tested with the help of a standard PAMPA (pION). PAMPA was performed on a PAMPA Explorer instrument (pION) with the PAMPA Explorer command software (Version 3.7.4.1). The compounds were diluted to 10 mM with the system solution buffer (pH 7.4). Then, 150 μL of the diluted compound solution was transferred to a UV plate, and the UV spectrum was collected and used as a reference. Then, paint the membrane with 5 μL of gastrointestinal tract (GIT) lipid. The acceptor chamber was filled with 200 μL of acceptor solution buffer, and the donor chamber was filled with 200 μL of diluted compound solution. The PAMPA sandwich was assembled and left at 25 °C for 4 h. The UV spectra (240–500 nm) from the donor and the acceptor were collected. The permeability coefficient was calculated with the PAMPA Explorer Command software (Version 3.7.4.1) based on the area under the curve (AUC) of the reference plate, the donor plate, and the acceptor plate. The permeability coefficient of the compound was tested for four times, and the data are shown as the average values.

[5] = test system: U2OS cells; test: MTT antiproliferative assay, U2OS; type: cell-based; conditions: Homo sapiens, 72 h
[6] = test system: lung cancer A549 transplanted mouse model; test: In vivo tumor growth inhibition, intravenous administration; set-up: species or system Kunming mice; conditions: for Body Weight After-Dose / Inhibitory Rate / Weight of Tumor: two weeks
Procedure: The lung cancer A549 transplanted mouse model was employed. DDO-6101 and antitumor drug 5-fluorouracil (5-FU) were also tested for comparison.
(§6) Kunming mice with body weights of 18–22 g were transplanted with lung cancer A549 cells according to protocols of transplant tumor research, as previously reported. Twenty-four hours after tumor transplantation, animals were weighed and randomly divided into five groups. All test drugs were given […] 24 h after tumor transplantation. The treated groups were intravenously injected or administered per os different doses of test compounds, respectively. The negative control group received 0.9% normal saline. Treatments were conducted at a frequency of one dose per two days for the intravenous group or one dose per day for the per os group for two or one week, respectively. All animals were sacrificed 24 h after the final treatment. All data are presented as mean ± SD and the statistical significance was evaluated by t-test.

[7] = Parallel artificial membrane permeability assay (PAMPA)
Source text: as §4
as §5, with “The PAMPA sandwich was assembled and left at 25 °C for 4 h.” left out

[8] = test system: lung cancer A549 transplanted mouse model; test: In vivo tumor growth inhibition, per os administration; set-up: species or system Kunming mice; conditions: for Body Weight After-Dose / Inhibitory Rate / Weight of Tumor: 50 mg/kg daily, one week; for Body Weight Pre-Dose: 50 mg/kg
Source text: Subsequently, 8g was set to determine further its in vivo efficacy with per os administration on the growth of inoculated A549 in mice using DDO-6101 as a comparison control. […] Thus, compound 8g was identified as a new and orally-active natural-product-like caged xanthone and also a promising antitumor agent for further clinical development.
as §6

[9] = test system: taxol-resistant A549 cell line (A549/taxol); test: MTT antiproliferative assay, A549/taxol; type: cell-based; conditions: Homo sapiens
Procedure: as §1, §2, §3

[10] = test system: cisplatin-resistant A549 cell line (A549/cisplatin); test: MTT antiproliferative assay, A549/cisplatin; type: cell-based; conditions: Homo sapiens, 72 h
Procedure: as §1, §2, §3

[11] = test system: human lung carcinoma A549 cell line; test: MTT antiproliferative assay, A549; type: cell-based; conditions: for IC50: Homo sapiens, A549, MTT, 72 h
Procedure: as §1, §2, §3

[12] = A549/Taxol, MTT, 72 h, read-out: IC50 A549/Taxol

SMILES	IC50 [1] [nM]	logD [2]	IC50 [3] [nM]	solubility [4] [µM]	IC50 [5] [nM]	Body Weight Pre-Dose ([6]; 20 mg/kg) [g]	Body Weight After-Dose ([6]; 20 mg/kg) [g]	Inhibitory Rate ([6]; 20 mg/kg) [%]	Weight of Tumor ([6]; 20 mg/kg)	Papp at 4 h, 10 mM ([7]; pH 5) [×10⁻⁶ cm/s]	Papp at 4 h, 10 mM ([7]; pH 6.2) [×10⁻⁶ cm/s]	Papp at 4 h, 10 mM ([7]; pH 7.4) [×10⁻⁶ cm/s]	Body Weight After-Dose [8] [g]	Inhibitory Rate [8] [%]	Weight of Tumor [8]	Body Weight Pre-Dose [8] [g]	IC50 [9, 12] [nM]	IC50 [10] [nM]	IC50 [11] [nM]	melting point [°C]	other results
CC(C)=CCC12OC(C)(C)C3CC(C=C4C(=O)c5c(O)cccc5OC431)C2=O (centres unmarked) [DDO-6101, reference compound]	710 ± 100	2.9	2040 ± 80	< 5	5350 ± 80	21.13 ± 1.22	27.69 ± 1.90	34.56	0.89 ± 0.18 ^b g	23.6 ± 5.5	25.8 ± 1.1	18 ± 3.9	26.69 ± 1.90	21.43	1.10 ± 0.25 ^b g	21.13 ± 1.02	460 ± 30	–	–	–	–
CC(C)=CCC12OC(C)(C)C3CC(C=C4C(=O)c5c(OCc6cn(CCN7CCOCC7)nn6)cccc5OC431)C2=O (centres unmarked) [Compound 8g]	280 ± 30	1.3	3790 ± 430	3020 (≈ 1740 µg/mL)	950 ± 210	20.67 ± 1.30	27.73 ± 2.78	71.32	0.40 ± 0.14 ^b g	51.3 ± 4.8	63.1 ± 5.6	74.4 ± 6.8	27.73 ± 2.78	66.43	0.47 ± 0.12 ^a g	20.67 ± 1.20	420 ± 50	330 ± 70	310 ± 20	–	fold higher activity than DDO-6101 in A549 cells ([11]; from IC50 values): approximately eight-fold; Body Weight Pre-Dose ([6]; 5 mg/kg): 20.80 ± 1.53 g; Body Weight After-Dose ([6]; 5 mg/kg): 28.53 ± 2.81 g; Inhibitory Rate ([6]; 5 mg/kg): 30.88%; Weight of Tumor ([6]; 5 mg/kg): 0.94 ± 0.24 ^a g; Body Weight Pre-Dose ([6]; 10 mg/kg): 21.40 ± 1.81 g; Body Weight After-Dose ([6]; 10 mg/kg): 28.08 ± 2.66 g; Inhibitory Rate ([6]; 10 mg/kg): 52.21%; Weight of Tumor [6]: 0.65 ± 0.17 ^b g; Pe range ([7]; range under different pH from 5.0 to 7.4): 51.3–74.4 × 10^–6 cm/s; IC50 ([9]; range over both resistant A549 lines and both compounds, read-out: IC50 values, taxol-resistant and cisplatin-resistant A549 cell lines): 330 to 550 nM
CC(C)=CCC12OC(C)(C)C3CC(C=C4C(=O)c5c(OCc6cn(CCCN7CCN(C)CC7)nn6)cccc5OC431)C2=O (centres unmarked) [Compound 8j]	1090 ± 210	0.7	2910 ± 30	4020 (≈ 2420 µg/mL)	5860 ± 210	–	–	–	–	9.7 ± 0.5	43.2 ± 0.7	64.9 ± 5.4	–	–	–	–	820 ± 80	1290 ± 110	930 ± 80	126 to 129	–
CC(C)=CCC12OC(C)(C)C3CC(C=C4C(=O)c5c(OCc6cn(CCN7CCCC7)nn6)cccc5OC431)C2=O (centres unmarked) [Compound 8c]	980 ± 310	2.2	1190 ± 310	1400 (≈ 782 µg/mL)	2010 ± 200	–	–	–	–	42.3 ± 1.5	75.4 ± 6.9	91.9 ± 6	–	–	–	–	1290 ± 70	1340 ± 90	2580 ± 390	168 to 170	–
CC(C)=CCC12OC(C)(C)C3CC(C=C4C(=O)c5c(OCc6cn(CCCN(C)C)nn6)cccc5OC431)C2=O (centres unmarked) [Compound 8b]	2270 ± 50	1.8	1360 ± 160	1540 (≈ 842 µg/mL)	2730 ± 50	–	–	–	–	16.3 ± 1.2	41.7 ± 3.2	76.1 ± 6.4	–	–	–	–	1300 ± 80	1660 ± 110	2620 ± 200	133 to 136	–
